Measurements reported in PubChem BioAssay (NCI).
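48-hour exposure; five concentrations; linearly interpolated endpoints. TGI marks complete inhibition of growth.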

Legend:
Assay in all cases: NCI tumour cell line growth inhibition, 48 h
T-47D breast = system: T-47D breast
SW-620 colon = system: SW-620 colon
UACC-62 melanoma = system: UACC-62 melanoma
M14 melanoma = system: M14 melanoma
MCF7 breast = system: MCF7 breast
SK-MEL-28 melanoma = system: SK-MEL-28 melanoma
DU-145 prostate = system: DU-145 prostate
A549 NSCLC = system: A549 NSCLC
RXF 393 renal = system: RXF 393 renal
SF-295 CNS = system: SF-295 CNS
OVCAR-8 ovarian = system: OVCAR-8 ovarian

| Structure (SMILES) | TGI (T-47D breast) | TGI (SW-620 colon) | TGI (UACC-62 melanoma) | TGI (M14 melanoma) | TGI (MCF7 breast) | TGI (SK-MEL-28 melanoma) | TGI (DU-145 prostate) | TGI (A549 NSCLC) | TGI (RXF 393 renal) | TGI (SF-295 CNS) | TGI (OVCAR-8 ovarian) |
| --- | --- | --- | --- | --- | --- | --- | --- | --- | --- | --- | --- |
| O=[N+]([O-])C(=C(N1CCOCC1)N1CCOCC1)/C(Cl)=C(\Cl)[N+](=O)[O-] | 4.39 µM | 5.27 µM | 34.8 µM | 22.1 µM | 7.73 µM | 28.9 µM | 18 µM | 50.8 µM | 3.89 µM | 36.4 µM | – |
| CCOC(=O)CC[C@@H](NC(=O)c1ccc(N[C@@H]2c3cc4c(cc3C(c3cc(OC)c(O)c(OC)c3)C3C(=O)OC[C@@H]32)OCO4)cc1)C(=O)OCC (some centres undefined) | – | – | 0.0557 µM | > 10 µM | – | 0.53 µM | – | – | – | 0.0497 µM | – |
| COC(=O)CC1C(=O)OCc2c1cc1n(c2=O)Cc2c-1nc1ccccc1c2OC (centres undefined) | – | > 100 µM | > 100 µM | > 100 µM | – | > 100 µM | – | > 100 µM | 70.2 µM | – | > 100 µM |
| CCCNC(=S)/N=C\c1c(O)c2ccccc2oc1=O | – | > 100 µM | > 100 µM | > 100 µM | > 100 µM | > 100 µM | > 100 µM | > 100 µM | > 100 µM | > 100 µM | > 100 µM |
| CC1OC(O[C@H]2CC[C@]3(C)[C@H]4CC=C5[C@@H]6[C@@H](C)[C@H](C)CC[C@]6(C(=O)O)CC[C@@]5(C(=O)O)[C@]4(C)CC[C@H]3C2(C)C)C(O)C(O)C1O (some centres undefined) | > 75 µM | > 75 µM | > 75 µM | > 75 µM | > 75 µM | – | > 75 µM | – | > 75 µM | > 75 µM | > 75 µM |
| O=C1CCC2SC1CCC2=O | – | > 100 µM | – | > 100 µM | > 100 µM | > 100 µM | > 100 µM | > 100 µM | > 100 µM | > 100 µM | > 100 µM |
| COC(=O)c1c(C(=O)OC)c2cc(C(=O)c3ccccc3)ccn2c1Cl | – | > 100 µM | 88.4 µM | > 100 µM | – | > 100 µM | – | > 100 µM | 85 µM | 85.2 µM | > 100 µM |
| O=C(Nc1nc(C23CC4CC(CC(C4)C2)C3)cs1)c1cc2cc(Br)cc(Br)c2oc1=O | > 100 µM | > 100 µM | > 100 µM | – | > 100 µM | > 100 µM | > 100 µM | > 100 µM | > 100 µM | > 100 µM | > 100 µM |
| CC1(C)C(=O)N=C(N)N1C(=O)OCc1ccccc1 | > 100 µM | > 100 µM | > 100 µM | > 100 µM | > 100 µM | > 100 µM | > 100 µM | > 100 µM | – | > 100 µM | > 100 µM |
| NC1CC(=O)c2cc(Br)sc21 (centres undefined) | > 100 µM | > 100 µM | > 100 µM | > 100 µM | > 100 µM | > 100 µM | > 100 µM | > 100 µM | > 100 µM | – | > 100 µM |
| COc1cc2cc(C(=O)N3CC(CCl)c4ccc(NCCN)cc43)[nH]c2c(OC)c1OC (centres undefined) | 5.19 µM | – | 0.35 µM | 0.716 µM | 3.45 µM | 1.4 µM | 6.2 µM | 12.5 µM | 0.327 µM | 1.44 µM | 2.77 µM |
| CC(C)CCC[C@@H](C)C1CCC2[C@@H]3CCC4CC(CCC=C(c5cc(Cl)c(OC(=O)c6ccccc6)c(C(=O)O)c5)c5cc(Cl)c(OC(=O)c6ccccc6)c(C(=O)O)c5)CC[C@]4(C)C3CC[C@@]21C (some centres undefined) | – | > 100 µM | > 100 µM | 29.3 µM | > 100 µM | – | > 100 µM | > 100 µM | > 100 µM | – | > 100 µM |
| COC(=O)C1(O)c2ccccc2N=C2C(=O)c3ccccc3N21 (centres undefined) | – | > 100 µM | – | – | > 100 µM | > 100 µM | > 100 µM | > 100 µM | > 100 µM | > 100 µM | > 100 µM |
| Cc1cc(Cl)ccc1N=NC(=O)NNc1ccc(Cl)cc1C | 26.6 µM | 30.2 µM | 24.8 µM | 35.3 µM | – | 30.7 µM | 23.3 µM | 30.6 µM | – | – | 27.2 µM |
| CSc1cc(Cl)c(C)cc1S(=O)(=O)NC(=O)NNc1ccc(F)c(Cl)c1 | > 100 µM | > 100 µM | – | > 100 µM | > 100 µM | > 100 µM | > 100 µM | > 100 µM | > 100 µM | > 100 µM | > 100 µM |
| CC1[C@@H](OCc2ccccc2)COC(=O)N1Cc1ccccc1 (some centres undefined) | – | > 100 µM | > 100 µM | > 100 µM | > 100 µM | > 100 µM | > 100 µM | > 100 µM | – | > 100 µM | > 100 µM |
| CCCCCCCCCCCCCCCCP(=O)(O)OP(=O)(O)OCC1OC(n2cnc3c(N)ncnc32)C(O)C1O (centres undefined) | > 100 µM | 88.1 µM | 69.2 µM | 56.7 µM | 45.7 µM | > 100 µM | > 100 µM | > 100 µM | – | – | 43.9 µM |
| CCOC(=O)c1c(NC(=O)Nc2ccccc2)c(C(N)=O)c2n1CCCCC2 | > 100 µM | > 100 µM | > 100 µM | > 100 µM | > 100 µM | > 100 µM | > 100 µM | – | > 100 µM | > 100 µM | > 100 µM |
| CCN(CC)Cc1cc(Nc2c3ccccc3nc3c2[nH]c2ccccc23)ccc1O | – | 3.43 µM | 3.01 µM | 3.11 µM | – | 3.47 µM | – | 2.93 µM | 2.77 µM | 2.83 µM | 3.11 µM |
| CCC1(N=[N+]=[N-])C(=O)Nc2cc(C)ccc2C1=O (centres undefined) | – | > 100 µM | > 100 µM | > 100 µM | – | > 100 µM | – | > 100 µM | – | > 100 µM | > 100 µM |
| CC1NC(/C(=C/c2ccccc2O)NC(=O)c2ccccc2)OC1=O (centres undefined) | > 50 µM | > 50 µM | > 50 µM | > 50 µM | > 50 µM | > 50 µM | – | > 50 µM | – | > 50 µM | > 50 µM |
| CC(=O)c1ccc2c(c1)oc(=O)n2CCN1CCCCC1 | – | > 100 µM | > 100 µM | > 100 µM | > 100 µM | > 100 µM | > 100 µM | – | > 100 µM | > 100 µM | > 100 µM |
| O=C(c1ccncc1)n1nc(-c2ccccc2)c(N=Nc2ccc([N+](=O)[O-])cc2)c1-c1ccccc1 | – | > 100 µM | > 100 µM | > 100 µM | – | > 100 µM | – | > 100 µM | – | > 100 µM | > 100 µM |
